According to patent publication US11467151B1, “Phosphorescence oxygen analyzer and uses thereof” (priority 2021, dated 2022):

Test system: striatal tissue
Experiment: Striatal cellular respiration (oxygen consumption of striatal fragments, phosphorescence oxygen analyzer)
Format: cell-based, C57BL6 male mice
Settings: for effect on striatal cellular respiration (in words): in vitro, viable striatal tissue; for time over which the inhibitory effects remained relatively stable: with glucose, repeated additions of toxin (FIG. 3B, FIG. 4B)
Method: C57BL6 male mice (13 weeks old, about 20 g weight) were housed at 22° C. with 60% humidity and 12-h light-dark cycles. Rodent chow and filtered water were provided ad libitum. The study was approved from the UAE University Animal Research Ethics Committee (Ref. ERA-20196026). Diethyl ether was used for anesthesia.
The studied mice were not treated in any way prior to striatal tissue collection. The skin and skull were cut to expose the whole brain, which was then rapidly removed and placed in a freshly prepared Pd phosphor solution: Phosphate-buffered saline (PBS: 137 mM NaCl, 2.7 mM KCl, 4.3 mM Na2HPO4, and 1.4 mM KH2PO4, pH 7.4), 3.0 μM Pd phosphor, 0.5% fat-free albumin, with and without 5.0 mM glucose. The brain region that contained the striatum was dissected. The specimen weight was determined prior to placing it in the oxygen measuring vial that contained 2.0 mL of the Pd phosphor solution. A small portion of the specimen was stored at −80° C. for Western blot analysis.
For oxygen analysis, our previously described phosphorescence oxygen analyzer was used to monitor oxygen consumption at 25° C. in the studied striatal fragments. In reaction vials sealed from air, oxygen concentration decreased linearly with time (zero-order kinetics); the rate (k, in μM O2 min^−1) was thus the negative of d [O21/dt. The calibration reactions utilized glucose oxidase (D-glucose+O2→D-glucono-δ-lactone+H2O2) and […]. Dissolved oxygen in the solution was also depleted by the addition of glucose oxidase plus […]. Potassium cyanide (KCN, added from a stock prepared in dH2O immediately before use) inhibited respiration, confirming oxygen was consumed in cytochrome oxidase.

| Compound | rate of respiration (k) in the presence of MPP+ (1.25 mM MPP+, Pd phosphor solution with 5.0 mM glucose, 25° C., n=3, p=0.048) [μM O2 min^−1 mg^−1] | effect on striatal cellular respiration (in words) | time over which the inhibitory effects remained relatively stable | rate of respiration (k) in the presence of rotenone (10 μM rotenone, Pd phosphor solution with 5.0 mM glucose, 25° C., mean±SD, n=5, without toxin 0.141 (n=7), P=0.073) [μM O2 min^−1 mg^−1] |
| --- | --- | --- | --- | --- |
| C[n+]1ccc(-c2ccccc2)cc1.[I-] [MPP+, 1-Methyl-4-phenylpyridinium iodide] | 0.077±0.006 | inhibited | about 300 min | – |
| C=C(C)[C@H]1Cc2c(ccc3c2O[C@@H]2COc4cc(OC)c(OC)cc4[C@@H]2C3=O)O1 [rotenone, Rotenone] | – | inhibited | about 100 min | 0.092±0.022 |
